These results are taken from patent US11814367B2, “Inhibitors of glycogen synthase 1 (GYS1) and methods of use thereof” (Maze Therapeutics, Inc., priority 2021, dated 2023).

For assay [1], the target named is hGYS1 enzyme (recombinant hGYS1/GN1 protein) (Homo sapiens (Human), UniProt P13807). Briefly: GYS1 coupled enzyme assay (PK/LDH). The class given is biochemical. The following applies: hGYS1/GN1 50 nM, UDP-Glucose 0.8 mM, G6P 1 mM; geometric mean of at least 2 runs.
Assay [2] has as its system hGYS1 enzyme / glycogen synthesis in HeLa cells. Briefly: GYS1 cell based assay (glycogen synthesis, Glucose-glo). Further details: species or system human. The following applies: Homo sapiens, HeLa, 24 h, 24 h incubation, 20 mM glucose, geometric mean of at least 2 runs. The text has this:
The GYS1 cell based assay is a bioluminescent assay that quantifies the glucose resulting from glycogen digestion; the quantified glucose is an indirect measure of GYS1 glycogen synthesis. Newly synthesized glycogen is digested using Glucoamylase; the resulting glucose is quantified by using the Glucose-glo assay kit from Promega. Glucose-glo works by coupling glucose oxidation and NADH production with a bioluminescent system that is activated with NADH. Glucose is oxidized by Glucose dehydrogenase and the reaction reduces NAD+ to NADH; NADH activates Reductase which reduces a pro-luciferin Reductase Substrate to luciferin. Luciferin is detected in a luciferase reaction using Ultra-Glo rLuciferase and ATP, and the luminesce produced is proportional to the glucose in the sample. The luminescence is measured as a single point read in a plate reader.
Compounds that inhibit the hGYS1 enzyme and, subsequently, the glycogen synthesis in cells, were tested using assay ready plates (white, clear bottom 384 well plates) in a final DMSO reaction volume of 1% DMSO. Compounds in the assay ready plates were mixed with media with no additives, except for 20 mM glucose prior to cell addition. HeLa cells were starved in media with no additives, except for 1× Glutamax for 24 h. Starved HeLa cells were plated, in a 1:1 ratio to the media in the assay ready plate and incubated for 24 h at 37° C. and 5% C02. Cells were washed in 1×PBS buffer and lysed in lysis buffer containing 50% 1×PBS and 25% 0.3 N HCl of the final volume in the well or reaction volume; cells were incubated with lysis buffer for 10 minutes and quenched with the remaining 25% of the reaction volume that consisted of 450 mM Tris pH 8.0. Lysates were mixed in a 1:1 ratio with Glucoamylase in 100 mM Sodium Acetate buffer, pH 5.3; the mixture was incubated for 1 h at 37° C. The digested lysate was mixed in a 1:1 ratio with Glucose-glo detection mixture as per vendor recommendations (Luciferase detection buffer, Reductase, Reductase substrate, Glucose dehydrogenase, and NAD) in read-out plates (solid white 384-well plates) and incubated for 1 h at RT. The plates were read using a plate reader with luminescence capabilities. Each compound concentration Relative Luminescence Unit (RLU) was averaged and normalized to the average RLU of the positive and negative controls to obtain a percentage inhibition. The normalized data vs. concentration was plotted; to determine the half-maximal concentration (IC50), the Levenberg-Marquardt algorithm was used to fit a Hill equation to the dose response data.
The results are shown in Table 3 below, which reports the IC50 of each compound. Unless otherwise specified, IC50 values are reported as the geometric mean of at least 2 assay runs on separate days. As shown in the table below, the compounds of the present invention are potent inhibitors of human GYS1. Unless otherwise specified, IC50 values are reported as the geometric mean of at least two assay runs on separate days. Each run represents the average of a technical replicate, where each compound was assayed twice in the same plate. A superscript “#” symbol in Table 3 indicates results from a single assay run.

Sequence of hGYS1 enzyme (recombinant hGYS1/GN1 protein) (P13807 whole entry): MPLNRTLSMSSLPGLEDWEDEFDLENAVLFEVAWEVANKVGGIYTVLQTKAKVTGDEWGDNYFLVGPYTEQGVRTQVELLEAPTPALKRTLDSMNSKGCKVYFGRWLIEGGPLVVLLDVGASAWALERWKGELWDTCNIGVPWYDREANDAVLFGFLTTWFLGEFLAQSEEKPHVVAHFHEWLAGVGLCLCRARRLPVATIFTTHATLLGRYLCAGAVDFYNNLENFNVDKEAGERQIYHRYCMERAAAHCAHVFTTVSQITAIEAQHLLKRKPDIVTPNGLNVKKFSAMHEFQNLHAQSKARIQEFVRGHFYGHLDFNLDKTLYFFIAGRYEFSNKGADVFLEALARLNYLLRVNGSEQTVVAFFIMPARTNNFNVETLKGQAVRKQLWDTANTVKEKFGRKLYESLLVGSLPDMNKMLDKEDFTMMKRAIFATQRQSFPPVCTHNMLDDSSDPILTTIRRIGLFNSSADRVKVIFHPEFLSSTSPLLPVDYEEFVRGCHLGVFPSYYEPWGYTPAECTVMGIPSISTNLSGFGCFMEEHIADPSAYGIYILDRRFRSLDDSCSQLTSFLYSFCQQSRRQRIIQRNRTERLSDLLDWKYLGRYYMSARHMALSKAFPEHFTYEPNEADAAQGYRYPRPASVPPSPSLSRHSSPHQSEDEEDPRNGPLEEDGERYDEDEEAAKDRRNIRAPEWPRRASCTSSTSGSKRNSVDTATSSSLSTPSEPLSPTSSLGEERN
Sequence of hGYS1 enzyme (recombinant hGYS1/GN1 protein) (P46976 whole entry partner): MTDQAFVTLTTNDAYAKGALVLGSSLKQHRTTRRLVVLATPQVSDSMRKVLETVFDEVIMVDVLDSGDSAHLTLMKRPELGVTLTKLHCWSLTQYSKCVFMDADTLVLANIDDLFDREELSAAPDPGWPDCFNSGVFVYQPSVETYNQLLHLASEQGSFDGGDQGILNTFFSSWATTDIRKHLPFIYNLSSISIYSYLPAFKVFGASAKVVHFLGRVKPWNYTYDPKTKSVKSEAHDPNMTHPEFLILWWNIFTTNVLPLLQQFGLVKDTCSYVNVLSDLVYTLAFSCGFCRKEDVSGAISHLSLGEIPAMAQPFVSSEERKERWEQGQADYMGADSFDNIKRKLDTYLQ

In the case of `Cc1cc(C(NC(=O)[C@@H]2C[C@@H](F)CN2C(=O)CNC(=O)N(C)C)c2cccnc2N)ccc1C(C)C` (single isomer, unassigned) [Compound 622, (2S,4R)-N-[(R) or (S)-(2-aminopyridin-3-yl)[3-methyl-4-(propan-2-yl)phenyl]methyl]-1-{2-[(dimethylcarbamoyl)amino]acetyl}-4-fluoropyrrolidine-2-carboxamide], the IC50 in assay [1] was 443 nM; in assay [2] it was over 10000 nM.
In the same order, the values of `CC(C)c1cnc(C(NC(=O)[C@@H]2C[C@@H](F)CN2C(=O)Cc2cnn[nH]2)c2ccccc2)cc1C(F)(F)F` (single isomer, unassigned) [Compound 608, (2S,4R)-4-fluoro-N-[(S) or (R)-phenyl[5-(propan-2-yl)-4-(trifluoromethyl)pyridin-2-yl]methyl]-1-[2-(1H-1,2,3-triazol-5-yl)acetyl]pyrrolidine-2-carboxamide] are 2860 nM and over 10000 nM.
The corresponding values for `COc1ncccc1C(NC(=O)[C@@H]1C[C@@H](F)CN1C(=O)Cc1cnn[nH]1)c1ccc(C2(C)CC2)c(F)c1` (single isomer, unassigned) [Compound 626, (2S,4R)-4-fluoro-N-[(R) or (S)-[3-fluoro-4-(1-methylcyclopropyl)phenyl](2-methoxypyridin-3-yl)methyl]-1-[2-(1H-1,2,3-triazol-5-yl)acetyl]pyrrolidine-2-carboxamide] are 805 nM and over 30000 nM.
Regarding `O=C(N[C@@H](c1ccccc1)c1ccc(C2CC2)c(F)n1)[C@@H]1C[C@@H](F)CN1C(=O)Cn1nnnc1C(F)(F)F` [Compound 755, (2S,4R)-N-[(S)-(5-cyclopropyl-6-fluoropyridin-2-yl)(phenyl)methyl]-4-fluoro-1-{2-[5-(trifluoromethyl)-1H-1,2,3,4-tetrazol-1-yl]acetyl}pyrrolidine-2-carboxamide], the IC50 came out at 102 nM in assay [1] and 1060 nM in assay [2].
For the compound `Cc1cn(CC(=O)N2C[C@H](F)C[C@H]2C(=O)N[C@H](c2ccccc2)c2ccc(C3(C)CC3)c(F)c2)c(=O)[nH]c1=O` [Compound 557, (2S,4R)-4-fluoro-N—((R)-(3-fluoro-4-(1-methylcyclopropyl)phenyl)(phenyl)methyl)-1-(2-(5-methyl-2,4-dioxo-3,4-dihydropyrimidin-1(2H)-yl)acetyl)pyrrolidine-2-carboxamide], the IC50 turned out to be 424 nM in assay [1] and 5780 nM in assay [2].
The corresponding values for `CCn1ccnc(CC(=O)N2C[C@H](F)C[C@H]2C(=O)N[C@@H](c2ccccc2)c2ccc(C(C)C)c(F)n2)c1=O` [Compound 806, (2S,4R)-1-[2-(4-ethyl-3-oxo-3,4-dihydropyrazin-2-yl)acetyl]-4-fluoro-N-[(S)-[6-fluoro-5-(propan-2-yl)pyridin-2-yl](phenyl)methyl] pyrrolidine-2-carboxamide] are 6 nM and 90 nM.
The corresponding values for `CC(C)c1ccc(C(NC(=O)[C@@H]2C[C@@H](F)CN2C(=O)Cc2cnn[nH]2)c2ncn3ccccc23)nc1F` (single isomer, unassigned) [Compound 629, (2S,4R)-4-fluoro-N-[(S) or (R)-[6-fluoro-5-(propan-2-yl)pyridin-2-yl]({imidazo[1,5-a]pyridin-1-yl})methyl]-1-[2-(1H-1,2,3-triazol-5-yl)acetyl]pyrrolidine-2-carboxamide] are 1480 nM and over 24000 nM.
In the case of `CC(=O)N1C[C@H](F)C[C@H]1C(=O)NC(c1cccc(-c2cc(C)n[nH]2)c1)c1ccc(C(C)C)c(F)n1` (single isomer, unassigned) [Compound 696, (2S,4R)-1-acetyl-4-fluoro-N-[(S) or (R)-[6-fluoro-5-(propan-2-yl)pyridin-2-yl][3-(3-methyl-1H-pyrazol-5-yl)phenyl]methyl] pyrrolidine-2-carboxamide], the IC50 came to 103 nM in assay [1] and 2710 nM in assay [2].
The corresponding values for `CCN(CC)c1cnnn1CC(=O)N1C[C@H](F)C[C@H]1C(=O)N[C@@H](c1ccccc1)c1ccc(C2CC2)c(F)n1` [Compound 748, (2S,4R)-N-[(S)-(5-cyclopropyl-6-fluoropyridin-2-yl)(phenyl)methyl]-1-{2-[5-(diethylamino)-1H-1,2,3-triazol-1-yl]acetyl}-4-fluoropyrrolidine-2-carboxamide] are 15 nM and 530 nM.
The corresponding values for `O=C(N[C@@H](c1ccccc1)c1ccc(C2CC2)c(F)n1)[C@@H]1C[C@@H](F)CN1C(=O)Cc1nc(C(F)(F)F)co1` [Compound 738, (2S,4R)-N-[(S)-(5-cyclopropyl-6-fluoropyridin-2-yl)(phenyl)methyl]-4-fluoro-1-{2-[4-(trifluoromethyl)-1,3-oxazol-2-yl]acetyl}pyrrolidine-2-carboxamide] are 105 nM and 1210 nM.
In the case of `CC(C)c1ccc([C@@H](NC(=O)[C@@H]2C[C@@H](F)CN2C(=O)Cn2nncc2N2CC(F)(F)C2)c2ccccc2)nc1F` [Compound 807, (2S,4R)-1-{2-[5-(3,3-difluoroazetidin-1-yl)-1H-1,2,3-triazol-1-yl]acetyl}-4-fluoro-N-[(S)-[6-fluoro-5-(propan-2-yl)pyridin-2-yl](phenyl)methyl] pyrrolidine-2-carboxamide], the IC50 was 19 nM in assay [1] and 450 nM in assay [2].
In the same order, the values of `O=C(N[C@@H](c1ccccc1)c1ccc(C2CC2)c(F)n1)[C@@H]1C[C@@H](F)CN1C(=O)Cc1[nH]nnc1C(F)F` [Compound 756, (2S,4R)-N-[(S)-(5-cyclopropyl-6-fluoropyridin-2-yl)(phenyl)methyl]-1-{2-[4-(difluoromethyl)-1H-1,2,3-triazol-5-yl]acetyl}-4-fluoropyrrolidine-2-carboxamide] are 23 nM and 1700 nM.
The corresponding values for `Cc1cc(C(F)F)n(CC(=O)N2C[C@H](F)C[C@H]2C(=O)N[C@@H](c2ccccc2)c2ccc(C(C)C)c(F)n2)n1` [Compound 803, (2S,4R)-1-{2-[5-(difluoromethyl)-3-methyl-1H-pyrazol-1-yl]acetyl}-4-fluoro-N-[(S)-[6-fluoro-5-(propan-2-yl)pyridin-2-yl](phenyl)methyl] pyrrolidine-2-carboxamide] are 4 nM and 80 nM.
As for `O=C(NC(c1ccccc1)c1ccc(C2CCC2)cn1)[C@@H]1C[C@@H](F)CN1C(=O)Cc1cnn[nH]1` (single isomer, unassigned) [Compound 610, (2S,4R)-N-[(S) or (R)-(5-cyclobutylpyridin-2-yl)(phenyl)methyl]-4-fluoro-1-[2-(1H-1,2,3-triazol-5-yl)acetyl]pyrrolidine-2-carboxamide], the IC50 in assay [1] stood at 107 nM; in assay [2], 1010 nM.
Take `CCOc1ncc(CC(=O)N2C[C@H](F)C[C@H]2C(=O)N[C@@H](c2ccccc2)c2ccc(C3CC3)c(F)n2)cc1C` [Compound 737, (2S,4R)-N-[(S)-(5-cyclopropyl-6-fluoropyridin-2-yl)(phenyl)methyl]-1-[2-(6-ethoxy-5-methylpyridin-3-yl)acetyl]-4-fluoropyrrolidine-2-carboxamide]: the IC50 in assay [1] was 37 nM; in assay [2] it was 550 nM.
In the same order, the values of `CCN(CC)c1cnnn1CC(=O)N1C[C@H](F)C[C@H]1C(=O)N[C@@H](c1ccccc1)c1ccc(C(C)C)cn1` [Compound 713, (2S,4R)-1-{2-[5-(diethylamino)-1H-1,2,3-triazol-1-yl]acetyl}-4-fluoro-N-[(S)-phenyl[5-(propan-2-yl)pyridin-2-yl]methyl]pyrrolidine-2-carboxamide] are 74 nM and 860 nM.
In the same order, the values of `O=C(N[C@@H](c1ccccc1)c1ccc(C2CC(F)(F)C2)c(F)n1)[C@@H]1C[C@@H](F)CN1C(=O)Cc1ncc[nH]c1=O` [Compound 529, (2S,4R)-N-[(S)-[5-(3,3-difluorocyclobutyl)-6-fluoropyridin-2-yl](phenyl)methyl]-4-fluoro-1-[2-(3-oxo-3,4-dihydropyrazin-2-yl)acetyl]pyrrolidine-2-carboxamide] are 16 nM and 1040 nM.

What is called IC50 is the midpoint of a concentration-inhibition curve.
